We go through 2 compounds from the NIST ThermoML archive (doi:10.1021/je5006938).

Numbers after ± are expanded uncertainties.

The conditions of this data set: Liquid, Closed cell (Static) method.

Regarding `FC(F)=C(F)C(F)(F)F` [hexafluoropropene], the vapor or sublimation pressure (usually the equilibrium pressure above the liquid or solid) by setting is: (268.13 K) 278.57 ± 1.7 kPa; (278.14 K) 394.08 ± 1.9 kPa; (288.14 K) 542.58 ± 2.2 kPa; (298.14 K) 729.82 ± 2.6 kPa; (308.19 K) 963.24 ± 3.2 kPa; (318.22 K) 1251.2 ± 3.6 kPa.

On to `FC(F)(F)C1(F)OC1(F)F` (configuration not stated) [2,2,3-trifluoro-3-(trifluoromethyl)oxirane], for which the “vapor or sublimation pressure” value is, setting by setting: (268.13 K) 258.47 ± 1.6 kPa; (278.13 K) 365.66 ± 1.8 kPa; (288.15 K) 503.71 ± 2.1 kPa; (298.17 K) 678.24 ± 2.5 kPa; (308.2 K) 894.42 ± 3 kPa; (318.21 K) 1160.2 ± 3.4 kPa.
